Earlier results, collected in patent publication US10610591B2, “Light responsive quantum dot drug delivery system” (Nanoco Technologies Ltd., priority 2017, dated 2020).

What was measured:
[1] = pH 7.4
[2] = not given; remark: listed apart in the source

CC1=C(CC(=O)O)c2cc(F)ccc2/C1=C\c1ccc([S+](C)[O-])cc1 (centres unmarked) [sulindac]
log P^N (neutral) (neutral): 3.60
log D7.4 [1]: 0.12

CC(C)(C#N)c1cc(Cn2cncn2)cc(C(C)(C)C#N)c1 [anastrozole, alpha,alpha,alpha′,alpha′-tetramethyl-5-(1H,1,2,4-triazol-1-ylmethyl)-m-benzenediacetonitrile]
log P (log Po/w, log Poct/wat, log Pexp) (octanol/water): 2.4

7-Ethyl-10-hydroxycamptothecin
solubility in DMSO ([2]; DMSO): 2000 µg/mL
solubility in water ([2]; water): essentially insoluble in water
